The record followed here is patent US20260001875A1, “AMINOPYRIMIDINYL DERIVATIVES FOR THE TREATMENT OF PARKINSON'S DISEASE” (UNIVERSITY OF DUNDEE, priority 2022, published 2026).

Series [1] in a line: Stability in mouse liver microsome. Format: in vitro ADME. The note with it: liver microsomes, read-out: T1/2 in mouse liver microsome.
The test system of a further series is LRRK2 pSer935. Description: LRRK2 Ser935 dephosphorylation in PBMC. The note with it: time course at 300 nM. Format: cell-based, human. The procedure: PBMC cells were separated from human blood following existing protocol (dx.doi.org/10.17504/protocols.io.bnhxmb7n) and pelleted by centrifugation at 1000 g for 2 min. The supernatant was discarded and the PBMC pellet was resuspended in PBS containing 2% FBS for washing. The suspension was centrifuged at 1000 g for 2 min again and the PBMC pellet was resuspended in RPMI-1640 (Gibco) media supplemented with 10% FBS. The cells were then seeded into 6-well plates and treated with testing compounds at indicated concentrations and time period. After treatment, the cells were collected into 2-ml Eppendorf tube and centrifuged at 500 g for 2 min to pellet the cells, the supernatant was discarded, and the pellet was resuspended in 1 ml PBS and centrifuged at 500 g for 2 min again. […] The supernatants were collected for analysis by quantitative immunoblotting. […] Protein concentrations of cell lysates were determined using Pierce™ BCA Protein Assay Kit (ThermoFisher).
Cell lysates containing a quarter of a volume of 4× NuPAGE LDS sample buffer (NP0007) supplemented with 5% β-mercaptoethanol, were heated at 95° C. for 5 minutes. […] Thereafter, the membranes were washed with TBS-T three times with a 15-minute incubation for each wash, and protein bands were acquired via near-infrared fluorescent detection using the Odyssey CLx imaging system and quantified using Image Studio software. […]

The nature of series [2]: Stability in mouse plasma. The format is in vitro ADME. The following applies: read-out: T1/2 in mouse plasma.

Each structure is given as a SMILES string.

Regarding `CNc1nc(Nc2ccc(C(=O)N3CCN(C[C@H]4CC[C@H](CSC(C)(C)[C@H](NC(=O)C5(F)CC5)C(=O)N5C[C@H](O)CC5C(=O)NCc5ccc(-c6scnc6C)cc5)CC4)CC3)cc2OC)ncc1Cl` (stereo partly drawn) [XL01126, (2S,4R)-1-((R)-3-((((1R,4R)-4-((4-(4-((5-chloro-4-(methylamino)pyrimidin-2-yl)amino)-3-methoxybenzoyl)piperazin-1-yl)methyl)cyclohexyl)methyl)thio)-2-(1-fluorocyclopropane-1-carboxamido)-3-methylbutanoyl)-4-hydroxy-N-(4-(4-methylthiazol-5-yl)benzyl)pyrrolidine-2-carboxamide], the values for the half-life in series [1] and in series [2] were 3.65 min and 1.8 h, respectively. Also, in the series on LRRK2 pSer935, the “T1/2 of LRRK2 dephosphorylation in PBMC” value came out at 1 h.
